Laboratory results published in patent US10899754B2, “Modulators of indoleamine 2,3-dioxygenase” (GLAXOSMITHKLINE INTELLECTUAL PROPERTY DEVELOPMENT LIMITED, priority 2016, dated 2021).

Legend:
[1] = test system: human peripheral blood mononuclear cells (PBMC); assay: PBMC cytotoxicity assay (CellTiter-Glo); format: cell-based; conditions: 2 days, pCC50
Experimental: (§1) Compounds of the present invention were tested via high-throughput cellular assays utilizing detection of kynurenine via mass spectrometry and cytotoxicity as end-points. For the mass spectrometry and cytotoxicity assays, human peripheral blood mononuclear cells (PBMC) (PB003F; AllCells®, Alameda, Calif.) were stimulated with human interferon-γ (IFN-γ) (Sigma-Aldrich Corporation, St. Louis, Mo.) and lipopolysaccharide from Salmonella minnesota (LPS) (Invivogen, San Diego, Calif.) to induce the expression of indoleamine 2, 3-dioxygenase (IDO1). Compounds with IDO1 inhibitory properties decreased the amount of kynurenine produced by the cells via the tryptophan catabolic pathway. Cellular toxicity due to the effect of compound treatment was measured using CellTiter-Glo® reagent (CTG) (Promega Corporation, Madison, Wis.), which is based on luminescent detection of ATP, an indicator of metabolically active cells.
(§2) In preparation for the assays, test compounds were serially diluted 3-fold in DMSO from a typical top concentration of 1 mM or 5 mM and plated at 0.5 μL in 384-well, polystyrene, clear bottom, tissue culture treated plates with lids (Greiner Bio-One, Kremsmünster, Austria) to generate 11-point dose response curves. Low control wells (0% kynurenine or 100% cytotoxicity) contained either 0.5 μL of DMSO in the presence of unstimulated (−IFN-γ/−LPS) PBMCs for the mass spectrometry assay or 0.5 μL of DMSO in the absence of cells for the cytotoxicity assay, and high control wells (100% kynurenine or 0% cytotoxicity) contained 0.5 μL of DMSO in the presence of stimulated (+IFN-γ/+LPS) PBMCs for both the mass spectrometry and cytotoxicity assays.
(§3) Frozen stocks of PBMCs were washed and recovered in RPMI 1640 medium (Thermo Fisher Scientific, Inc., Waltham, Mass.) supplemented with 10% v/v heat-inactivated fetal bovine serum (FBS) (Thermo Fisher Scientific, Inc., Waltham, Mass.), and 1× penicillin-streptomycin antibiotic solution (Thermo Fisher Scientific, Inc., Waltham, Mass.). The cells were diluted to 1,000,000 cells/mL in the supplemented RPMI 1640 medium. 50 μL of either the cell suspension, for the mass spectrometry assay, or medium alone, for the cytotoxicity assay, were added to the low control wells, on the previously prepared 384-well compound plates, resulting in 50,000 cells/well or 0 cells/well respectively. IFN-γ and LPS were added to the remaining cell suspension at final concentrations of 100 ng/ml and 50 ng/ml respectively, and 50 μL of the stimulated cells were added to all remaining wells on the 384-well compound plates. The plates, with lids, were then placed in a 37° C., 5% CO2 humidified incubator for 2 days.
(§4) Following incubation, the 384-well plates were removed from the incubator and allowed to equilibrate to room temperature for 30 minutes. For the cytotoxicity assay, CellTiter-Glo® was prepared according to the manufacturer's instructions, and 40 μL were added to each plate well. After a twenty minute incubation at room temperature, luminescence was read on an EnVision® Multilabel Reader (PerkinElmer Inc., Waltham, Mass.). For the mass spectrometry assay, 10 μL of supernatant from each well of the compound-treated plates were added to 40 μL of acetonitrile, containing 10 μM of an internal standard for normalization, in 384-well, polypropylene, V-bottom plates (Greiner Bio-One, Kremsmünster, Austria) to extract the organic analytes. Following centrifugation at 2000 rpm for 10 minutes, 10 μL from each well of the acetonitrile extraction plates were added to 90 μL of sterile, distilled H2O in 384-well, polypropylene, V-bottom plates for analysis of kynurenine and the internal standard on the RapidFire 300 (Agilent Technologies, Santa Clara, Calif.) and 4000 QTRAP MS (SCIEX, Framingham, Mass.). MS data were integrated using Agilent Technologies' RapidFire Integrator software, and data were normalized for analysis as a ratio of kynurenine to the internal standard. […]

[2] = biological target: indoleamine 2, 3-dioxygenase (IDO1) (Homo sapiens, UniProt P14902); assay: IDO1 PBMC RapidFire MS assay (kynurenine detection by mass spectrometry); format: cell-based; design: to induce the expression of indoleamine 2, 3-dioxygenase (IDO1); host or cells: human PBMC stimulated with IFN-gamma and LPS; conditions: human PBMC stimulated with IFN-γ and LPS, 2 days, pIC50, read-out: PBMC PXC50 (converted)
Chain of indoleamine 2, 3-dioxygenase (IDO1) (P14902 whole entry): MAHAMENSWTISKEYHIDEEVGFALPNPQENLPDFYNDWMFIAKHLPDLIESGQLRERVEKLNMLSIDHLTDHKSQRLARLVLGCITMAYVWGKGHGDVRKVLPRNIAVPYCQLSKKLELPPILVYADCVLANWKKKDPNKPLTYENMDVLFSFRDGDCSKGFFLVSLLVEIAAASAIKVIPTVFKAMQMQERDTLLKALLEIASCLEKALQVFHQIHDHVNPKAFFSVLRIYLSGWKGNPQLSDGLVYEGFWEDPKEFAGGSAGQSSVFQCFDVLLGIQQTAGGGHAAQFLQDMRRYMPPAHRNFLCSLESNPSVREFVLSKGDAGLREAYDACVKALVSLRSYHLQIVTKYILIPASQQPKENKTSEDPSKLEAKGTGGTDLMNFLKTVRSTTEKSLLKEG
Experimental: IDO1 PBMC RapidFire MS Assay
as §1, §2, §3, §4

Row | IC50 [2] [nM] | SMILES | PBMC TOX PXC50 [1]
1 | 6.31 | CO[C@H]1CC[C@@H](N(CC(C)C)c2ccc([C@H](C)CC(=O)O)cc2Nc2n[nH]c(C3CC3)n2)CC1 [Example 63, (R)-3-(3-((5-cyclopropyl-1H-1,2,4-triazol-3-yl)amino)-4-(isobutyl((cis)-4-methoxycyclohexyl)amino)phenyl)butanoic Acid] | <5
2 | 1 | CC(C)CN(c1ccc([C@H](C)CC(=O)O)cc1Nc1nc(C(F)(F)F)ns1)C1CCN(C(=O)C2CC2)CC1 [Example 64, (R)-3-(4-((1-(cyclopropanecarbonyl)piperidin-4-yl) (isobutyl)amino)-3-((3-(trifluoromethyl)-1,2,4-thiadiazol-5-yl)amino)phenyl)butanoic Acid] | <5
3 | 1.58 | COC(=O)N1CCC(N(CC(C)C)c2ccc([C@H](C)CC(=O)O)cc2Nc2nc(C(F)(F)F)ns2)CC1 [Example 66] | 5.2
4 | 2 | COCCC(=O)N1CCC(N(CC(C)C)c2ccc([C@H](C)CC(=O)O)cc2Nc2nc(C(F)(F)F)ns2)CC1 [Example 68, (R)-3-(4-(isobutyl(1-(3-methoxypropanoyl)piperidin-4-yl)amino)-3-((3-(trifluoromethyl)-1,2,4-thiadiazol-5-yl)amino)phenyl)butanoic Acid] | <5
5 | 3.16 | CC(=O)N1CCC(N(CC(C)C)c2ccc([C@H](C)CC(=O)O)cc2Nc2nc(C(F)(F)F)ns2)CC1 [Example 70, (R)-3-(4-((1-acetylpiperidin-4-yl) (isobutyl)amino)-3-((3-(trifluoromethyl)-1,2,4-thiadiazol-5-yl)amino)phenyl)butanoic Acid] | <5
6 | 1.58 | COC(=O)c1c[nH]c(Nc2cc([C@H](C)CC(=O)O)ccc2N(CC(C)C)C2CCCCC2)n1 [Example 77, (R)-3-(4-(cyclohexyl(isobutyl)amino)-3-((4-(methoxycarbonyl)-1H-imidazol-2-yl)amino)phenyl)butanoic Acid] | <5
7 | 3.16 | CC(C)CN(c1ccc([C@H](C)CC(=O)O)cc1Nc1n[nH]c(C(F)(F)F)n1)C1CCCCC1 [Example 78, (R)-3-(4-(cyclohexyl(isobutyl)amino)-3-((5-(trifluoromethyl)-1H-1,2,4-triazol-3-yl)amino)phenyl)butanoic Acid] | <5
8 | 5.01 | CNC(=O)c1nnc(Nc2cc(C(C)CC(=O)O)ccc2N(CC(C)C)C2CCCCC2)s1 (stereo not drawn) [Example 79] | <5
9 | 1.58 | CC(C)CN(c1ccc(C(C)CC(=O)O)cc1Nc1nnc(C(N)=O)s1)C1CCCCC1 (stereo not drawn) [Example 80, 3-(3-((5-carbamoyl-1,3,4-thiadiazol-2-yl)amino)-4-(cyclohexyl(isobutyl)amino)phenyl)butanoic] | <5
10 | 7.94 | CC(C)CN(c1ccc([C@H](C)CC(=O)O)cc1Nc1n[nH]c(C#N)n1)C1CCCCC1 [Example 83, (R)-3-(3-((5-cyano-1H-1,2,4-triazol-3-yl)amino)-4-(cyclohexyl(isobutyl)amino)phenyl)butanoic Acid] | <5
11 | 7.94 | CC(C)CN(c1ccc([C@H](C)CC(=O)O)cc1Nc1n[nH]c(C(N)=O)n1)C1CCCCC1 [Example 84, (R)-3-(3-((5-carbamoyl-1H-1,2,4-triazol-3-yl)amino)-4-(cyclohexyl(isobutyl)amino)phenyl)butanoic Acid] | <5
12 | 2.51 | CC(C)CN(CC(C)C)c1ccc([C@H](C)CC(=O)O)cc1Nc1nc(C(F)(F)F)c[nH]1 [Example 85, (R)-3-(4-(diisobutylamino)-3-((4-(trifluoromethyI)-1H-imidazol-2-yl)amino)phenyl)butanoic Acid] | <5
13 | 3.98 | CC(C)CN(CC(C)C)c1ccc([C@H](C)CC(=O)O)cc1Nc1n[nH]c(C(F)(F)F)n1 [Example 86, (R)-3-(4-(diisobutylamino)-3-((5-(trifluoromethyI)-1H-1,2,4-triazol-3-yl)amino)phenyl)butanoic Acid] | <5
14 | 3.98 | CC(C)CN(c1ccc(-c2ccccc2C(=O)O)cc1Nc1nc(C#N)ns1)C1CCCCC1 [Example 89, 3′-((3-cyano-1,2,4-thiadiazol-5-yl)amino)-4′-(cyclohexyl(isobutyl)amino)-[1,1′-biphenyl]-2-carboxylic Acid] | <5
15 | 1.26 | CC(C)CN(c1ccc([C@H](C)CC(=O)O)cc1Nc1n[nH]c(C(F)(F)F)n1)[C@H]1CC[C@@H](Br)CC1 [Example 93, (R)-3-(4-(((cis)-4-bromocyclohexyl) (isobutyl)amino)-3-((5-(trifluoromethyl)-1H-1,2,4-triazol-3-yl)amino)phenyl)butanoic Acid] | <5
16 | 1.26 | CC(C)CN(CCCCCN=[N+]=[N-])c1ccc([C@H](C)CC(=O)O)cc1Nc1nc(C(F)(F)F)ns1 [Example 94, (R)-3-(4-((5-azidopentyl) (isobutyl)amino)-3-((3-(trifluoromethyl)-1,2,4-thiadiazol-5-yl)amino)phenyl)butanoic Acid] | <4.3
17 | 1.58 | CC(C)CN(c1ccc([C@H](C)CC(=O)O)cc1Nc1nc(C(F)(F)F)ns1)C1CCN(c2nc(C(F)(F)F)ns2)CC1 [Example 95, (R)-3-(4-(isobutyl(1-(3-(trifluoromethyl)-1,2,4-thiadiazol-5-yl)piperidin-4-yl)amino)-3-((3-(trifluoromethyl)-1,2,4-thiadiazol-5-yl)amino)phenyl)butanoic Acid] | <5
18 | 10 | CO[C@H](C)CN(CC(C)C)c1ccc([C@H](C)CC(=O)O)cc1Nc1nc(C(F)(F)F)ns1 [Example 96, (R)-3-(4-(isobutyl((R)-2-methoxypropyl)amino)-3-((3-(trifluoromethyl)-1,2,4-thiadiazol-5-yl)amino)phenyl)butanoic Acid] | <5
19 | 7.94 | CC(C)CN(c1ccc([C@H](C)CC(=O)O)cc1Nc1nc(Cl)ns1)C1CC2(CCC2)C1 [Example 98, (R)-3-(3-((3-chloro-1,2,4-thiadiazol-5-yl)amino)-4-(isobutyl(spiro[3.3]heptan-2-yl)amino)phenyl)butanoic Acid] | <5

Row | SMILES | IC50 [2] [nM] | PBMC TOX PXC50 [1]
20 | CC(C)CN(c1ccc([C@H](C)CC(=O)O)cc1Nc1nc(C(F)(F)F)ns1)C1CCN(C(=O)OC(C)(C)C)CC1 [Example 69, (R)-3-(4-((1-(tert-butoxycarbonyl)piperidin-4-yl) (isobutyl)amino)-3-((3-(trifluoromethyl)-1,2,4-thiadiazol-5-yl)amino)phenyl)butanoic Acid] | 2.51 | <5
21 | CC(C)CN(c1ccc(-c2ccccc2C(=O)O)cc1Nc1nc(C(F)(F)F)ns1)C1CC2(C1)CN(C(=O)OC(C)(C)C)C2 [Example 97, 4′-((2-(tert-butoxycarbonyl)-2-azaspiro[3.3]heptan-6-yl) (isobutyl)amino)-3′-((3-(trifluoromethyl)-1,2,4-thiadiazol-5-yl)amino)-[1,1′-biphenyl]-2-carboxylic Acid] | 6.31 | <5
